Read-outs that look alike come from different tables or passages of the source.
Assays:
HeLa cells = assay: MTT cytotoxicity assay, HeLa; assay type: cell-based; conditions: Homo sapiens, 24 h, read-out: IC50, Cervix, HeLa
Method: (§1) In the first step of the study, we analyzed the cytotoxicity of novel soloxolone derivatives 1–12 in a panel of tumor cells, including human cervical carcinoma HeLa, human duodenal carcinoma HuTu-80 and murine melanoma B16 cells, as well as human non-transformed hFF3 foreskin fibroblasts. The cells were treated with derivatives for 24 h and cell viability was evaluated by 3-(4,5-dimethylthiazol-2-yl)-2,5-diphenyltetrazolium bromide (MTT) assay. SM was used as the reference compound.
(§2) The cells in the exponential growth phase were seeded in quadruplicate in 96-well plates at a density of 1 × 10^4 cells/well for HeLa, U87, U118, KELLY and Neuro2a cells; 1.5 × 10^4 cells/well for HuTu-80 cells; 2 × 10^4 cells/well for B16 cells; and 7 × 10^3 cells/well for hFF3 fibroblasts. Cells were incubated under standard conditions overnight followed by their treatment with the investigated compounds (1–20 µM) for 24 h. Then, 10 µL of MTT solution was added to the cells to a final concentration of 0.5 mg/mL and plates were placed under standard conditions for 3 h followed by an aspiration of MTT-containing medium and a dissolution of formazan crystals with 100 µL of DMSO. The absorbance of each well was read at test and reference wavelengths of 570 and 620 nm, respectively, on a Multiscan RC plate reader (Thermo LabSystems, Helsinki, Finland).

HuTu-80 cells = assay: MTT cytotoxicity assay, HuTu-80; assay type: cell-based; conditions: Homo sapiens, HuTu80, 24 h, read-out: IC50, Duodenum, HuTu-80
Method: as §1, §2

B16 cells = assay: MTT cytotoxicity assay, B16; assay type: cell-based, murine; conditions: Mus musculus, 24 h, read-out: IC50, Melanoma, B16
Method: as §1, §2

[1] = system: hFF3 foreskin fibroblasts; assay: MTT cytotoxicity assay, hFF3 fibroblasts; assay type: cell-based, human
Method: as §1, §2

U87 cells = assay: MTT cytotoxicity assay, U87; assay type: cell-based; conditions: Homo sapiens, U-87 MG, 24 h, read-out: IC50, Glioblastoma, U87
Method: (§3) To evaluate the antitumor activity of the synthesized soloxolone amides in brain tumor cells, the cytotoxicity of compounds 4–12, predicted as BBB-permeable (Figure 3), was further analyzed in human glioblastoma U87 and U118 cells, as well as human neuroblastoma KELLY and murine neuroblastoma Neuro2a cells.
as §2

U118 cells = assay: MTT cytotoxicity assay, U118; assay type: cell-based; conditions: Homo sapiens, 24 h, read-out: IC50, Glioblastoma, U118
Method: as §3, §2

KELLY cells = assay: MTT cytotoxicity assay, KELLY; assay type: cell-based; conditions: Homo sapiens, 24 h, read-out: IC50, Neuroblastoma, KELLY
Method: as §3, §2

Neuro2a cells = assay: MTT cytotoxicity assay, Neuro2a; assay type: cell-based, murine; conditions: Mus musculus, N2a, 24 h, read-out: IC50, Neuroblastoma, Neuro2a
Method: as §3, §2

panel of tumor cells = assay: MTT cytotoxicity, values averaged over the cell panel; assay type: cell-based
Method: as §1, §2

brain tumor cells = assay: MTT cytotoxicity, values summarised over brain tumor cells; assay type: cell-based; conditions: U87, U118, KELLY, Neuro2a; MTT 24 h; read-out: IC50 (median), brain tumor cells
Method: as §3, §2

[2] = average over Table 1 cell lines (worded 'in a panel of tumor cells'), MTT 24 h, read-out: average IC50
[3] = aryl-containing amides versus SM, tumor cells of Table 1, MTT 24 h, read-out: average IC50 against tumor cells

Structure (SMILES)	IC50 (HeLa cells)	IC50 (HuTu-80 cells)	IC50 (B16 cells)	IC50 ([1]; Homo sapiens, HFF-3, 24 h)	IC50 (U87 cells)	IC50 (U118 cells)	IC50 (KELLY cells)	IC50 (Neuro2a cells)	IC50 (panel of tumor cells; [2])	IC50 (panel of tumor cells; [3])	melting point	IC50 (panel of tumor cells; conclusions, soloxolone amides versus SM, read-out: average IC50 in a panel of tumor cell lines)	IC50 (brain tumor cells)	IC50 ([1]; 24 h)
CN(C)CCCNC(=O)[C@@]1(C)CC[C@]2(C)CC[C@]3(C)[C@H](C(=O)C=C4[C@@]5(C)C=C(C#N)C(=O)C(C)(C)C5CC[C@]43C)[C@@H]2C1 (stereo partly shown) [compound 7, N-(3′-(Dimethylamino)propyl)-2-cyano-3,12-dioxo-18βH-olean-9(11),1(2)-dien-30-amide]	4900 ± 800 nM	2000 ± 700 nM	3300 ± 800 nM	7700 ± 1100 nM	5300 ± 700 nM	5200 ± 1300 nM	1800 ± 300 nM	3700 ± 600 nM	4500 nM	–	–	–	–	–
CC1(C)C(=O)C(C#N)=C[C@]2(C)C3=CC(=O)[C@@H]4[C@@H]5C[C@@](C)(C(=O)Nc6ccc(Br)cc6)CC[C@]5(C)CC[C@@]4(C)[C@]3(C)CCC12 (stereo partly shown) [compound 8, N-(4′-Bromophenyl)-2-Cyano-3,12-dioxo-18βH-olean-9(11),1(2)-dien-30-amide]	1500 ± 100 nM	1400 ± 100 nM	1900 ± 100 nM	1800 ± 100 nM	1700 ± 100 nM	2000 ± 100 nM	1400 ± 100 nM	1600 ± 100 nM	–	1500 to 1800 nM	283 °C (dec.)	–	–	–
CC1(C)C(=O)C(C#N)=C[C@]2(C)C3=CC(=O)[C@@H]4[C@@H]5C[C@@](C)(C(=O)Nc6cccnc6)CC[C@]5(C)CC[C@@]4(C)[C@]3(C)CCC12 (stereo partly shown) [compound 10, N-(Pyridin-3-yl)-2-Cyano-3,12-dioxo-18βH-olean-9(11),1(2)-dien-30-amide]	1800 ± 100 nM	1500 ± 200 nM	1700 ± 100 nM	1600 ± 100 nM	2500 ± 200 nM	2100 ± 200 nM	1500 ± 100 nM	1400 ± 100 nM	–	1500 to 1800 nM	250 °C	–	–	–
CC1(C)C(=O)C(C#N)=C[C@]2(C)C3=CC(=O)[C@@H]4[C@@H]5C[C@@](C)(C(=O)NCCCCCO)CC[C@]5(C)CC[C@@]4(C)[C@]3(C)CCC12 (stereo partly shown) [compound 4, N-(5′-Hydroxypentyl)-2-cyano-3,12-dioxo-18βH-olean-9(11),1(2)-dien-30-amide]	2300 ± 400 nM	1300 ± 100 nM	1500 ± 100 nM	3600 ± 300 nM	2000 ± 100 nM	3100 ± 500 nM	1500 ± 100 nM	1900 ± 200 nM	2200 nM	–	115.7 °C (dec.)	–	–	–
Cc1ccc(NC(=O)[C@@]2(C)CC[C@]3(C)CC[C@]4(C)[C@H](C(=O)C=C5[C@@]6(C)C=C(C#N)C(=O)C(C)(C)C6CC[C@]54C)[C@@H]3C2)cc1 (stereo partly shown) [compound 9, N-p-Tolyl-2-cyano-3,12-dioxo-18βH-olean-9(11),1(2)-dien-30-amide]	1600 ± 100 nM	1500 ± 100 nM	2100 ± 300 nM	3600 ± 300 nM	2000 ± 200 nM	1900 ± 200 nM	1400 ± 100 nM	1600 ± 100 nM	–	1500 to 1800 nM	–	–	–	–
CN(C)CCNC(=O)[C@@]1(C)CC[C@]2(C)CC[C@]3(C)[C@H](C(=O)C=C4[C@@]5(C)C=C(C#N)C(=O)C(C)(C)C5CC[C@]43C)[C@@H]2C1 (stereo partly shown) [compound 6, N-(2′-(Dimethylamino)ethyl)-2-Cyano-3,12-dioxo-18βH-olean-9(11),1(2)-dien-30-amide]	2600 ± 500 nM	2100 ± 500 nM	3300 ± 500 nM	4100 ± 300 nM	4600 ± 400 nM	3800 ± 500 nM	1600 ± 100 nM	2800 ± 400 nM	3000 nM	–	–	–	–	–
CC1(C)C(=O)C(C#N)=C[C@]2(C)C3=CC(=O)[C@@H]4[C@@H]5C[C@@](C)(C(=O)NCCCO)CC[C@]5(C)CC[C@@]4(C)[C@]3(C)CCC12 (stereo partly shown) [compound 3, N-(3′-Hydroxypropyl)-2-cyano-3,12-dioxo-18βH-olean-9(11),1(2)-dien-30-amide]	3500 ± 200 nM	1700 ± 200 nM	1400 ± 100 nM	6800 ± 1300 nM	–	–	–	–	3400 nM	–	150.8 °C (dec.)	–	–	–
CC1(C)C(=O)C(C#N)=C[C@]2(C)C3=CC(=O)[C@@H]4[C@@H]5C[C@@](C)(C(=O)NCCO)CC[C@]5(C)CC[C@@]4(C)[C@]3(C)CCC12 (stereo partly shown) [compound 2, N-(2′-Hydroxyethyl)-2-cyano-3,12-dioxo-18βH-olean-9(11),1(2)-dien-30-amide]	1500 ± 100 nM	1400 ± 100 nM	3300 ± 200 nM	1200 ± 100 nM	–	–	–	–	1900 nM	–	152.7 °C (dec.)	–	–	–
COC(=O)[C@@]1(C)CC[C@]2(C)CC[C@]3(C)[C@H](C(=O)C=C4[C@@]5(C)C=C(C#N)C(=O)C(C)(C)C5CC[C@]43C)[C@@H]2C1 (stereo partly shown) [SM, soloxolone methyl, reference compound]	1300 ± 100 nM	1500 ± 100 nM	1600 ± 100 nM	4000 ± 400 nM	1800 ± 100 nM	1900 ± 100 nM	1600 ± 100 nM	1400 ± 100 nM	2100 nM	1500 nM	–	1600 nM	1400 nM	–
CC1(C)C(=O)C(C#N)=C[C@]2(C)C3=CC(=O)[C@@H]4[C@@H]5C[C@@](C)(C(=O)O)CC[C@]5(C)CC[C@@]4(C)[C@]3(C)CCC12 (stereo partly shown) [compound 1, 2-Cyano-3,12-dioxo-18βH-olean-9(11),1(2)-dien-30-oic acid]	9900 ± 700 nM	2500 ± 300 nM	4200 ± 300 nM	16000 ± 1900 nM	–	–	–	–	8200 nM	–	–	–	–	–
CC(C)(C)c1cc(CCCNC(=O)[C@@]2(C)CC[C@]3(C)CC[C@]4(C)[C@H](C(=O)C=C5[C@@]6(C)C=C(C#N)C(=O)C(C)(C)C6CC[C@]54C)[C@@H]3C2)cc(C(C)(C)C)c1O (stereo partly shown) [compound 11, N-(3′-(3′’,5′’-di-tert-butyl-4′’-hydroxyphenyl)propyl)-2-Cyano-3,12-dioxo-18βH-olean-9(11),1(2)-dien-30-amide]	2500 ± 100 nM	1500 ± 100 nM	1400 ± 100 nM	1300 ± 200 nM	1500 ± 100 nM	1900 ± 100 nM	1800 ± 200 nM	1400 ± 100 nM	–	1500 to 1800 nM	139 °C (dec.)	–	–	–
COCCNC(=O)[C@@]1(C)CC[C@]2(C)CC[C@]3(C)[C@H](C(=O)C=C4[C@@]5(C)C=C(C#N)C(=O)C(C)(C)C5CC[C@]43C)[C@@H]2C1 (stereo partly shown) [compound 5, N-(2′-Methoxyethyl)-2-cyano-3,12-dioxo-18βH-olean-9(11),1(2)-dien-30-amide]	1500 ± 200 nM	2300 ± 200 nM	1600 ± 100 nM	12800 nM	5500 ± 1100 nM	7000 ± 700 nM	1600 ± 100 nM	2700 ± 300 nM	–	–	115.9 °C (dec.)	–	–	12900 ± 800 nM

— article PMC9145754, “Novel Soloxolone Amides as Potent Anti-Glioblastoma Candidates: Design, Synthesis, In Silico Analysis and Biological Activities In Vitro and In Vivo” (Pharmaceuticals, 2022)
